Reference: publication PMC7097893 (ACS Omega, 2020)
*1 amine or outer side, *2 acyl side, *3 side chain or, on linkers, in order; H or OH if unused. Where a SMILES comes first, the peptide text is derived from it. Bridges are numbered along the chain shown (N, C = ends). Biphenyl(4,4'-CH2)2 = c1cc(-c2ccc(C[*:2])cc2)ccc1C[*:1]

Legend:
[1] = target: galectin-3 (Gal-3) carbohydrate-binding domain; settings: read-out: Kd to Gal-3; cited from earlier work
galectin-3 (Gal-3) = galectin-3 (Gal-3) (Homo sapiens, UniProt P17931); type: binding
Sequence of galectin-3 (Gal-3) (P17931 whole entry): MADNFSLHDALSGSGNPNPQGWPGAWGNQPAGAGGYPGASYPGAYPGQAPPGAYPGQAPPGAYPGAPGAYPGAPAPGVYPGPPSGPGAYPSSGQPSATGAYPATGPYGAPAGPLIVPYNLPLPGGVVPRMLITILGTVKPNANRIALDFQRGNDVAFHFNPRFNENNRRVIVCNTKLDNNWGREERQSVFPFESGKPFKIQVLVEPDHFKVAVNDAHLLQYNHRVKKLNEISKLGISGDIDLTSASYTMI

[2] = type: physicochemical; settings: pH 7
circular dichroism = settings: 10 mM Tris-HCl; pH 7; 25 °C; 50 uM

For `CC(=O)N[C@H]1C(O)O[C@H](CO)[C@@H](O[C@@H]2O[C@H](CO)[C@H](O)[C@H](O)[C@H]2O)[C@@H]1O` (some centres unmarked) [N-acetyllactosamine], which Kd [1] is on record?
The Kd was 200 µM.

With “H-GAQECVYKEQSCKSAG-GGGK-(flu)-NH2 [p4-flu]” as the molecule, how does the “Gal-3 binding of non-stapled peptide (fluorescent intensity change)” value (galectin-3 (Gal-3)) read?
Its value is “did not show significant fluorescent changes”.

Which “Gal-3 binding of non-stapled peptide (fluorescent intensity change)” value (galectin-3 (Gal-3)) does the source give for “H-GAPECKRKEYECKKAG-GGGK-(flu)-NH2 [p10-flu]” here?
Its value is “did not show any Gal-3 binding”.

For H-GAAECAAKEAACKAAG-NH2 [control], which “helicity (α-helical content)” value [2] is on record?
Its value is 3.4%.

Which helicity (circular dichroism) does the source give for `C[C@H](NC(=O)CN)C(=O)N[C@@H](CCC(N)=O)C(=O)N[C@@H](CCC(=O)O)C(=O)N[C@H]1CSCc2ccc(cc2)-c2ccc(cc2)CSC[C@@H](C(=O)N[C@@H](CCCCN)C(=O)N[C@@H](CCCCN)C(=O)N[C@@H](C)C(=O)NCC(N)=O)NC(=O)[C@H](C)NC(=O)[C@@H]2CCCN2C(=O)[C@H](CCC(=O)O)NC(=O)[C@H](CCCCN)NC(=O)[C@@H]2CCCN2C(=O)[C@@H]2CCCN2C1=O` (H-GAQECPPKEPACKKAG-NH2; linker 5-12 via Biphenyl(4,4'-CH2)2) here?
The helicity was 14%.

Which “effect of excess lactose on fluorescent intensity change with Gal-3” value (galectin-3 (Gal-3)) does the source give for “H-GAQECPPKEPACKKAG-GGGK-(flu)-NH2 (sidechain bridge or staple) [p8-flu-BP]” here?
Its value is “did not significantly affect”.

Which helicity (circular dichroism) does the source give for `C[C@H](NC(=O)[C@H](CCCCN)NC(=O)[C@H](CCCCN)NC(=O)[C@@H]1CSCc2ccc(cc2)-c2ccc(cc2)CSC[C@H](NC(=O)[C@H](CCC(=O)O)NC(=O)[C@@H]2CCCN2C(=O)[C@H](C)NC(=O)CN)C(=O)N[C@@H](CCCCN)C(=O)N[C@@H](CCCNC(=N)N)C(=O)N[C@@H](CCCCN)C(=O)N[C@@H](CCC(=O)O)C(=O)N[C@@H](Cc2ccc(O)cc2)C(=O)N[C@@H](CCC(=O)O)C(=O)N1)C(=O)NCC(N)=O` (H-GAPECKRKEYECKKAG-NH2; linker 5-12 via Biphenyl(4,4'-CH2)2) here?
The helicity was 30%.

With `CC(C)[C@@H]1NC(=O)[C@@H](NC(=O)[C@H](CCC(=O)O)NC(=O)[C@H](CCC(N)=O)NC(=O)[C@H](C)NC(=O)CN)CSCc2ccc(cc2)-c2ccc(cc2)CSC[C@@H](C(=O)N[C@@H](CCCCN)C(=O)N[C@@H](CO)C(=O)N[C@@H](C)C(=O)NCC(N)=O)NC(=O)[C@H](CO)NC(=O)[C@H](CCC(N)=O)NC(=O)[C@H](CCC(=O)O)NC(=O)[C@H](CCCCN)NC(=O)[C@H](Cc2ccc(O)cc2)NC1=O` (H-GAQECVYKEQSCKSAG-NH2; linker 5-12 via Biphenyl(4,4'-CH2)2) as the molecule, how does the helicity (circular dichroism) read?
The helicity was 32%.
